The experiment addresses T1, THRβ (Homo sapiens, UniProt P10828).
T1 construct: expressed in transfected cells; host or cells: HEK293T
T1 sequence (P10828 217-461): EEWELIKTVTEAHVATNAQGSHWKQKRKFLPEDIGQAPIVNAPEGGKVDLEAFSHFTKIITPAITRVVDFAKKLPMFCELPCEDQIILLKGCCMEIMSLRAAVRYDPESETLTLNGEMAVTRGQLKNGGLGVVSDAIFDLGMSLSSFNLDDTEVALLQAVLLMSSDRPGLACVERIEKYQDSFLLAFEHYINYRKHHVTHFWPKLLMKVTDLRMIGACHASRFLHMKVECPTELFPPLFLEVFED
Nature of the experiment: Reporter gene (GAL4-THRβ-LBD / Dual-Glo luciferase) agonist activity assay in HEK293T cells. In kind it is cell-based. Conditions: ratio of reporter gene EC50 values THRα/THRβ. From the text: Experimental Example 1: Detection of THRα and THRβ Agonist Activities of Compounds Based on Reporter Gene Activity Assay Method
1.1 Construction and Preparation of Plasmids pGAL4-THR-LBD and pG5-Luc
The pGAL4-THRα-LBD and pGAL4-THRβ-LBD plasmids used in the reporter gene assay system were constructed by a conventional molecular cloning method comprising the following main steps: the cDNA sequences of THRα (NM_003250) and THRβ (NM_000461) corresponding to the amino acid sequences of THRα (163-407AA) and THRβ (217-461AA) were inserted into the BamHI and NotI enzyme digestion sites of the pGAL4 vector by the PCR technique respectively to obtain the pGAL4-THRα-LBD and pGAL4-THRβ-LBD plasmids; the pG5-Luc (#E249A) and pRL-TK (#E2241) plasmids were purchased from Promega; the plasmids were transfected into the E. coli DH5α by the CaCl2 method, and after further culture and amplification, the plasmids were purified by Plasmid Extraction Kits (TIANGEN, #D107) to obtain the corresponding plasmid DNAs.
1.2 Co-Transfection of Plasmids into HEK293T Cells and Treatment with Compounds
The HEK293T cells were inoculated into a 96-well plate at a density of 1×10^4/well the day before plasmid transfection. Cell transfection was conducted according to the instructions of the transfection reagent FuGENE® HD (Promega, #E2311). The main steps were as follows: taking one well as an example here, the plasmids pGAL4-THRα-LBD or pGAL4-THRβ-LBD, pG5-Luc, and pRL-TK were added in the proportions of 20 ng, 50 ng, and 5 ng to 10 μL of Opti-MEM™ I medium (Gibco, #11058021) and mixed well; subsequently, 0.25 uL of FuGENE® HD was added, mixed well, and then left at room temperature for 5 min; afterwards, 10 μL of the mixture was added to the cell wells containing 100 μL of culture medium. After cell co-transfection for 6 h, the compound was diluted in a 3-fold gradient with dimethyl sulfoxide at the highest concentration of 1 uM. The compound was added to the cell culture medium at a total of 10 concentrations for treatment for 24 h. There were a total of two duplicate wells for each concentration. Triiodothyronine (T3) was used as the positive control.
1.3 Dual-Glo Luciferase Assay
After the cells were treated with the compound for 24 h, the cells were assayed according to the instructions of Dual-Glo® Luciferase Assay System (Promega, #E2940). The main steps were as follows: 50 μL of culture medium was aspirated from each well and discarded, and then 50 μL of Dual-Glo® Luciferase reagent was added and oscillated at room temperature for 10 min; 80 μL of lysis reaction solution was measured into a white opaque optiPlate-96-well plate, and the luminescence signal value (Firefly-Luc) of the Firefly luciferase was detected using an MD i3x multi-mode microplate reader; 40 μL of Dual-Glo® Stop & Glo® reagent was then added, and oscillated at room temperature for 10 min; the luminescence signal value (Renilla-Luc) of the Renilla luciferase was then detected using an MD i3x multi-mode microplate reader. The Firefly-Luc/Renilla-Luc ratio was used as the activation activity of the compound against THR, and the ratio in the solvent DMSO group was used for normalization; the dose-response curve was fitted with four parameters using the GraphPad Prism6.0 software, and the EC50 value was calculated.

37 compounds from patent US20260048060A1, “POLYCYCLIC THYROID HORMONE b RECEPTOR AGONIST AND USE THEREOF” (CASCADE PHARMACEUTICALS, INC., priority 2022, published 2026) can be followed below.

On to `NC(=O)c1cc(Cl)ccc1OCc1c(Cl)cc(-n2ncc(=O)[nH]c2=O)cc1Cl` [Compound 32], for which the “Selectivity (THRα/THRβ)” value was “† (†: 5 ≥ THRα/β;)”.

`NC(=O)c1cc(F)ccc1OCc1c(Cl)cc(-n2ncc(=O)[nH]c2=O)cc1Cl` [Compound 37]: the “Selectivity (THRα/THRβ)” value is “† (†: 5 ≥ THRα/β;)”. Next, `CNC(=O)c1ccccc1OCc1c(Br)cc(-n2ncc(=O)[nH]c2=O)cc1Br` [Compound 39]: “† (†: 5 ≥ THRα/β;)”; `CCNC(=O)c1ccccc1OCc1c(Cl)cc(-n2ncc(=O)[nH]c2=O)cc1Cl` [Compound 43]: “† (†: 5 ≥ THRα/β;)”. Next, `CNC(=O)c1cscc1OCc1c(Cl)cc(-n2ncc(=O)[nH]c2=O)cc1Cl` [Compound 46]: “† (†: 5 ≥ THRα/β;)”. Take `CNC(=O)c1sccc1OCc1c(Cl)cc(-n2ncc(=O)[nH]c2=O)cc1Cl` [Compound 47]: the “Selectivity (THRα/THRβ)” value is reported as “† (†: 5 ≥ THRα/β;)”. For `CNC(=O)c1ccccc1OCc1c(Cl)cc(-n2nc(C)c(=O)[nH]c2=O)cc1Cl` [Compound 51] the value was “† (†: 5 ≥ THRα/β;)”; for `CNC(=O)c1ccccc1OCc1c(Cl)cc(-n2nc(C(F)(F)F)c(=O)[nH]c2=O)cc1Cl` [Compound 52], “† (†: 5 ≥ THRα/β;)”; for `CNC(=O)c1ccccc1OCc1c(Br)cc(-n2nc(C(F)F)c(=O)[nH]c2=O)cc1Br` [Compound 56], “†† (††: 10 ≥ THRα/β > 5;)”. For `NC(=O)c1ccccc1OCc1c(Br)cc(-n2nc(C(F)F)c(=O)[nH]c2=O)cc1Br` [Compound 57] the value was “† (†: 5 ≥ THRα/β;)”; for `CNC(=O)c1ccccc1OCc1c(Cl)cc(-c2nn(C)c(=O)[nH]c2=O)cc1Cl` [Compound 59], “† (†: 5 ≥ THRα/β;)”. Consider `CNC(=O)c1ccccc1OCc1c(Cl)cc(-c2nn(C(F)F)c(=O)[nH]c2=O)cc1Cl` [Compound 60], for which the “Selectivity (THRα/THRβ)” value is on record as “† (†: 5 ≥ THRα/β;)”. Next, `CNC(=O)c1ccccc1OCc1c(C)cc(-n2ncc(=O)[nH]c2=O)cc1Cl` [Compound 61]: “† (†: 5 ≥ THRα/β;)”. For `CNC(=O)c1cscc1OCc1c(Cl)cc(-n2nc(C(F)F)c(=O)[nH]c2=O)cc1Cl` [Compound 62], the “Selectivity (THRα/THRβ)” value is on record as “†† (††: 10 ≥ THRα/β > 5;)”. As to `CNC(=O)c1sccc1OCc1c(Cl)cc(-n2nc(C(F)F)c(=O)[nH]c2=O)cc1Cl` [Compound 63], the “Selectivity (THRα/THRβ)” value is “† (†: 5 ≥ THRα/β;)”.

With `NC(=O)c1cc(Br)ccc1OCc1c(Cl)cc(-n2ncc(=O)[nH]c2=O)cc1Cl` [Compound 64], the “Selectivity (THRα/THRβ)” value is “† (†: 5 ≥ THRα/β;)”. For `Cc1ccc(OCc2c(Cl)cc(-n3ncc(=O)[nH]c3=O)cc2Cl)c(C(N)=O)c1` [Compound 68] the value was “† (†: 5 ≥ THRα/β;)”; for `NC(=O)c1cc(-n2cccc2)ccc1OCc1c(Cl)cc(-n2ncc(=O)[nH]c2=O)cc1Cl` [Compound 70], “†† (††: 10 ≥ THRα/β > 5;)”.

With `CNC(=O)c1ccc(OCc2c(Cl)cc(-n3ncc(=O)[nH]c3=O)cc2Cl)cc1` [Compound 76], the “Selectivity (THRα/THRβ)” value was “† (†: 5 ≥ THRα/β;)”. With `NC(=O)c1cc(C2CC2)ccc1OCc1c(Cl)cc(-n2ncc(=O)[nH]c2=O)cc1Cl` [Compound 82], the “Selectivity (THRα/THRβ)” value is “†† (††: 10 ≥ THRα/β > 5;)”.

Take `Cc1ccc(OCc2c(Br)cc(-n3ncc(=O)[nH]c3=O)cc2Br)c(C(N)=O)c1` [Compound 83]: the “Selectivity (THRα/THRβ)” value is on record as “†††† (††††: 100 ≥ THRα/β > 20)”. For `CNC(=O)c1cc(C)ccc1OCc1c(Cl)cc(-n2ncc(=O)[nH]c2=O)cc1Cl` [Compound 84] the value was “† (†: 5 ≥ THRα/β;)”; for `CNC(=O)c1cc(C)ccc1OCc1c(Br)cc(-n2ncc(=O)[nH]c2=O)cc1Br` [Compound 85], “†††† (††††: 100 ≥ THRα/β > 20)”.

`Cc1ccc(OCc2c(Cl)cc(-n3nc(C(F)F)c(=O)[nH]c3=O)cc2Cl)c(C(N)=O)c1` [Compound 86]: the “Selectivity (THRα/THRβ)” value is “†† (††: 10 ≥ THRα/β > 5;)”.

`Cc1ccc(OCc2c(Br)cc(-n3nc(C(F)F)c(=O)[nH]c3=O)cc2Br)c(C(N)=O)c1` [Compound 87]: the “Selectivity (THRα/THRβ)” value was “† (†: 5 ≥ THRα/β;)”.

In the case of `CNC(=O)c1cc(C)ccc1OCc1c(Cl)cc(-n2nc(C(F)F)c(=O)[nH]c2=O)cc1Cl` [Compound 88], the “Selectivity (THRα/THRβ)” value is reported as “† (†: 5 ≥ THRα/β;)”. In the case of `CNC(=O)c1cc(C)ccc1OCc1c(Br)cc(-n2nc(C(F)F)c(=O)[nH]c2=O)cc1Br` [Compound 89], the “Selectivity (THRα/THRβ)” value was “† (†: 5 ≥ THRα/β;)”. On to `CNC(=O)c1sccc1OCc1c(Br)cc(-n2nc(C(F)F)c(=O)[nH]c2=O)cc1Br` [Compound 90], for which the “Selectivity (THRα/THRβ)” value is “††† (†††: 20 ≥ THRα/β > 10;)”. Take `CNC(=O)c1cscc1OCc1c(Br)cc(-n2nc(C(F)F)c(=O)[nH]c2=O)cc1Br` [Compound 91]: the “Selectivity (THRα/THRβ)” value is listed as “††† (†††: 20 ≥ THRα/β > 10;)”.

Turning to `CNC(=O)c1ccccc1OCc1c(Cl)cc(-n2nc(CF)c(=O)[nH]c2=O)cc1Cl` [Compound 93], the “Selectivity (THRα/THRβ)” value is “† (†: 5 ≥ THRα/β;)”. For `NC(=O)c1cc(C2=CCCCC2)ccc1OCc1c(Cl)cc(-n2ncc(=O)[nH]c2=O)cc1Cl` [Compound 99], the “Selectivity (THRα/THRβ)” value is “†††† (††††: 100 ≥ THRα/β > 20)”.

Take `NC(=O)c1cc(C2CCCCC2)ccc1OCc1c(Cl)cc(-n2ncc(=O)[nH]c2=O)cc1Cl` [Compound 100]: the “Selectivity (THRα/THRβ)” value is reported as “†††† (††††: 100 ≥ THRα/β > 20)”. For `NC(=O)c1cc(C2=CCCC2)ccc1OCc1c(Cl)cc(-n2ncc(=O)[nH]c2=O)cc1Cl` [Compound 101] the value was “† (†: 5 ≥ THRα/β;)”; for `NC(=O)c1cc(C2CCCC2)ccc1OCc1c(Cl)cc(-n2ncc(=O)[nH]c2=O)cc1Cl` [Compound 102], “†† (††: 10 ≥ THRα/β > 5;)”. For `[2H]C([2H])(Oc1ccccc1C(=O)NC)c1c(Cl)cc(-n2nc(C(F)F)c(=O)[nH]c2=O)cc1Cl` [Compound 103] the value was “† (†: 5 ≥ THRα/β;)”; for `[2H]C([2H])([2H])NC(=O)c1ccccc1OCc1c(Cl)cc(-n2nc(C(F)F)c(=O)[nH]c2=O)cc1Cl` [Compound 104], “†† (††: 10 ≥ THRα/β > 5;)”. On to `CNC(=O)c1ccccc1OCc1c(Cl)cc(-n2nc(C(F)F)c(=O)[nH]c2=O)cc1Br` [Compound 105], for which the “Selectivity (THRα/THRβ)” value is listed as “† (†: 5 ≥ THRα/β;)”.
